# Results reported in ChEMBL document CHEMBL4118038, “Tricyclic Polyprenylated Acylphloroglucinols from St John's Wort, Hypericum perforatum” (J Nat Prod, 2017).
# Biological target: Acetylcholinesterase (Homo sapiens, UniProt P22303)
# Experiment: Inhibition of human erythrocyte AChE using S-acetylthiocholine iodide as substrate preincubated for 20 mins followed by substrate addition measured every 30 secs for 1 hr by Ellman's method
# Settings: not given
# Chain of Acetylcholinesterase (P22303 whole entry): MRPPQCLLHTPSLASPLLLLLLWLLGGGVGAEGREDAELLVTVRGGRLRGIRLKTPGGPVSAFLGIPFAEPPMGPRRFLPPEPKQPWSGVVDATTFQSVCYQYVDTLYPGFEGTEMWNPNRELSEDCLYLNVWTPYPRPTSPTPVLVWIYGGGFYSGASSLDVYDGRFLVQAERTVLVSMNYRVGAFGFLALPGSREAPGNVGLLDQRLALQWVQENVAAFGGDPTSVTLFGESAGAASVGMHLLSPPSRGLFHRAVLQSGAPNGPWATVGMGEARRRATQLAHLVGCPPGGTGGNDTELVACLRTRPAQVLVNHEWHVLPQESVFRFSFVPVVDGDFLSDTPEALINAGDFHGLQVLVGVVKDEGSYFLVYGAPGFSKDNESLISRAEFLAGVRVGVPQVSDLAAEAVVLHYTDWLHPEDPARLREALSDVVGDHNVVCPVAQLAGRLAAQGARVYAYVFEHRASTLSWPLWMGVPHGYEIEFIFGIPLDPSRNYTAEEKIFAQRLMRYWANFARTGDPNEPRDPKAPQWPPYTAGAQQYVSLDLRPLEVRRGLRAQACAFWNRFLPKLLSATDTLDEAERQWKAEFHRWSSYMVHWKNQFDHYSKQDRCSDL
row,SMILES,IC50 [µM]
1,COC(C)(C)/C=C/C[C@]1(C)[C@@H](CC=C(C)C)C[C@]2(CC=C(C)C)C(=O)C3=C(O[C@@H](C(C)(C)O)C3)[C@@]1(C(=O)C(C)C)C2=O,7.17
2,COC(C)(C)/C=C/C[C@]1(C)[C@@H](CC=C(C)C)C[C@]2(CC=C(C)C)C(=O)C3=C(O[C@H](C(C)(C)O)C3)[C@@]1(C(=O)C(C)C)C2=O,3.98
3,C=C(C)[C@H](O)CC[C@]1(C)[C@@H](CC=C(C)C)C[C@@]2(CC=C(C)C)C(=O)[C@]1(C(=O)C(C)C)C(=O)C1=C2O[C@@H](C(C)(C)O)C1,25.1
4,CC(C)=CCC[C@]1(C)[C@@H](CC=C(C)C)C[C@@]2(CC=C(C)C)C(=O)[C@]1(C(=O)C(C)C)C(=O)C1=C2O[C@@H](C(C)(C)O)[C@@H]1O,11.3
5,CC(C)=CCC1=C2O[C@H](C(C)(C)O)C[C@@]23C[C@H](CC=C(C)C)[C@@](C)(CCC(=O)C(C)C)[C@@](C(=O)C(C)C)(C1=O)C3=O,24.3
6,C=C(C)[C@@H](O)CC[C@]1(C)[C@@H](CC=C(C)C)C[C@]23C[C@@H](C(C)(C)O)OC2=C(CC=C(C)C)C(=O)[C@@]1(C(=O)C(C)C)C3=O,9.13
7,CC(C)=CCC[C@]1(C)[C@@H](CC=C(C)C)C[C@@]2(CC=C(C)C)C(=O)[C@]1(C(=O)C(C)C)C(=O)C1=C2O[C@H](C(C)(C)O)[C@H]1O,18.6
8,C=C(C)[C@@H](O)CC[C@]1(C)[C@@H](CC=C(C)C)C[C@]2(CC=C(C)C)C(=O)C3=C(O[C@H](C(C)(C)O)C3)[C@@]1(C(=O)C(C)C)C2=O,10.7
9,CC(C)=CCC[C@]1(C)[C@@H](CC=C(C)C)C[C@]2(CC=C(C)C)C(=O)C3=C(O[C@H](C(C)(C)O)[C@H]3O)[C@@]1(C(=O)C(C)C)C2=O,8.83
10,CC(C)=CCC[C@]1(C)[C@@H](CC=C(C)C)C[C@]2(CC=C(C)C)C(=O)C3=C(O[C@@H](C(C)(C)O)[C@@H]3O)[C@@]1(C(=O)C(C)C)C2=O,12.6
11,CC(C)=CC[C@H]1C[C@@]2(CC=C(C)C)C(=O)[C@](C(=O)C(C)C)(C(=O)C3=C2O[C@H](C(C)(C)O)C3)[C@]1(C)CCC(=O)C(C)C,10.9
12,C=C(C)[C@H](O)CC[C@]1(C)[C@@H](CC=C(C)C)C[C@]2(CC=C(C)C)C(=O)C3=C(O[C@H](C(C)(C)O)C3)[C@@]1(C(=O)C(C)C)C2=O,19.6
13,CC(=O)[C@@]12C(=O)C(CC=C(C)C)=C3O[C@H](C(C)(C)O)C[C@]3(C[C@H](CC=C(C)C)[C@@]1(C)CCC=C(C)C)C2=O,8.75
14,C=C(C)[C@H](O)CC[C@]1(C)[C@@H](CC=C(C)C)C[C@@]2(CC=C(C)C)C(=O)[C@]1(C(=O)C(C)C)C(=O)C1=C2O[C@H](C(C)(C)O)C1,26.4

# Tested on: SMMC-7721
# Experiment: Cytotoxicity against human SMMC7721 cells assessed as reduction in cell viability after 48 hrs by MTS assay
# Type: functional, cell-based
# Settings: SMMC-7721, 48 h
row,SMILES,IC50 [µM]
1,CC(=O)[C@@]12C(=O)C(CC=C(C)C)=C3O[C@H](C(C)(C)O)C[C@]3(C[C@H](CC=C(C)C)[C@@]1(C)CCC=C(C)C)C2=O,10
2,C=C(C)[C@H](O)CC[C@]1(C)[C@@H](CC=C(C)C)C[C@@]2(CC=C(C)C)C(=O)[C@]1(C(=O)C(C)C)C(=O)C1=C2O[C@H](C(C)(C)O)C1,9.1
